Measured values published in the supplement of paper PMC10307832.

Experiments:
Assay in all cases: relative viability (nuclei count vs DMSO), 5 days (fraction); higher = more cells survive
[1] = compound: CS(=O)(=O)CCNCc1ccc(-c2ccc3ncnc(Nc4ccc(OCc5cccc(F)c5)c(Cl)c4)c3c2)o1 [Lapatinib] + CC(=O)c1c(C)c2cnc(Nc3ccc(N4CCNCC4)cn3)nc2n(C2CCCC2)c1=O [Palbociclib] (partner 0.5 µM)
How it was run: (§1)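 Nuclei were stained with Hoechst during a one-step fixation (final 0.05% Triton X-100, 1% formaldehyde, 1 ug/ml Hoechst) carried out 5 days after dosing, then counted on 4× images. The cells, lung cancer lines in 1536-well plates, had been dosed by pin tool the day after seeding with one drug alone or a fixed anchor-drug dose plus five library-drug doses (not always all listed) in √10 steps. Relative viability is the nuclei count in treated wells divided by that in vehicle wells, and each value is the median of duplicate plates.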

[2] = compound: CS(=O)(=O)CCNCc1ccc(-c2ccc3ncnc(Nc4ccc(OCc5cccc(F)c5)c(Cl)c4)c3c2)o1 [Lapatinib] + CS(=O)(=O)N1CCN(Cc2cc3nc(-c4cccc5[nH]ncc45)nc(N4CCOCC4)c3s2)CC1 [Pictilisib] (partner 1 µM)
How it was run: as §1

[3] = compound: CC1=NC=CC(=C1)C2=CC=C(C=C2)CC(=O)NC3=CC=C(C=C3)C4=CN=CC=C4 [Wnt-C59] + NC(=O)Nc1cc(-c2cccc(F)c2)sc1C(=O)N[C@H]1CCCNC1 [AZD7762] (partner 0.2 µM)
How it was run: as §1

[4] = compound: CS(=O)(=O)CCNCc1ccc(-c2ccc3ncnc(Nc4ccc(OCc5cccc(F)c5)c(Cl)c4)c3c2)o1 [Lapatinib] + CC(=O)Nc1cccc(-n2c(=O)n(C3CC3)c(=O)c3c(Nc4ccc(I)cc4F)n(C)c(=O)c(C)c32)c1 [Trametinib] (partner 0.02 µM)
How it was run: as §1

Cell Line	relative viability ([1]; first compound 0.02 µM)	relative viability ([1]; first compound 0.06325 µM)	relative viability ([1]; first compound 0.2 µM)	relative viability ([1]; first compound 0.6325 µM)	relative viability ([1]; first compound 2 µM)	relative viability ([2]; first compound 0.02 µM)	relative viability ([2]; first compound 0.06325 µM)	relative viability ([2]; first compound 0.2 µM)	relative viability ([2]; first compound 0.6325 µM)	relative viability ([2]; first compound 2 µM)	relative viability ([3]; first compound 0.001 µM)	relative viability ([3]; first compound 0.01 µM)	relative viability ([3]; first compound 0.03162 µM)	relative viability ([3]; first compound 0.1 µM)	relative viability ([4]; first compound 0.02 µM)	relative viability ([4]; first compound 0.06325 µM)	relative viability ([4]; first compound 0.2 µM)	relative viability ([4]; first compound 0.6325 µM)	relative viability ([4]; first compound 2 µM)
201T	0.358	0.309	0.339	0.338	0.342	0.603	0.656	0.675	0.659	0.638	0.713	0.697	0.598	0.606	0.735	0.719	0.694	0.726	0.651
A549						0.477	0.401	0.468	0.456	0.506									
A-427	0.544	0.518	0.526	0.524	0.483		0.602	0.854	0.765	0.665	0.801	0.815	0.831	0.688	0.724	0.631	0.716	0.788	0.691
ABC-1	0.71	0.487		0.533	0.787		0.655	1.09	0.93	0.696	0.89	0.686	0.488	0.518					
BEN	0.455	0.469	0.472	0.432	0.468	0.412	0.577	0.53	0.519	0.505	0.823	0.623	0.761	0.856	1.05	0.898	1.05	0.931	0.999
CAL-12T	0.197	0.304	0.319	0.329	0.137		0.415	0.31	0.528	0.351	0.595	0.588	0.505	0.631	0.308	0.257	0.313	0.29	0.203
COR-L23	0.248	0.298	0.342	0.297	0.279	0.681	0.583	0.984	0.92	0.733					0.408	0.555	0.68	0.651	0.551
COR-L 105	0.418	0.387	0.352	0.407	0.338	0.33	0.329	0.35	0.419	0.307					0.433	0.419	0.402	0.363	0.393
Calu-6						0.865	0.838	0.958	1.08	0.978									
ChaGo-K-1	0.868	0.9	0.939	0.909	0.912		0.861	0.598	0.599	0.32	0.893	0.844	0.955	0.901	0.868	0.918	0.9	0.868	0.894
EBC-1						0.467	0.368	0.364	0.386	0.256									
EKVX		0.337	0.265	0.22	0.145	0.41	0.322	0.376	0.345	0.177	0.871		0.689	0.651		0.29	0.315	0.249	0.147
EMC-BAC-2		0.459	0.524	0.536	0.539	0.355	0.433	0.504	0.581	0.493	0.941	0.975	0.897	0.975		0.526		0.83	0.789
EPLC-272H		0.288	0.291	0.299	0.261		0.207	0.386	0.381	0.293	0.246	0.247	0.289	0.247		0.25	0.281	0.246	0.293
H3255	0.334	0.291	0.308	0.291	0.283	0.452	0.403	0.397	0.284	0.155	0.927	0.922	0.953	0.828		0.49	0.623	0.516	0.25
HARA	0.194	0.195	0.202	0.233	0.224	0.418	0.261	0.527	0.33	0.288	0.408	0.348	0.38	1.61	0.476	0.316	0.331	0.36	0.304
HCC-15		0.68	0.734	0.652	0.584		0.734	0.767	0.725	0.638	1.28	1.34	1.29	1.06		0.243	0.386	0.312	0.341
HCC-44	0.995	1.01	0.976	1.05	0.823	0.606	1.03	0.66	0.654	0.421	1.07	0.952	0.97	1.01	1.03	1.05	1.16	1.04	0.807
HCC-78		0.453	0.49	0.467	0.506		0.265	0.196	0.21	0.208	0.59	0.653	0.688	0.624		0.509	0.668	0.681	0.675
HCC-366		0.334	0.339	0.356	0.323	0.133	0.0868	0.131	0.135	0.0768	0.271	0.247	0.286	0.322		0.293	0.253	0.371	0.2
